Measured values published in PubChem BioAssay AID2060490 (Molecular Pharmacology Branch, DTP, NCI, 2025).
pIC50: −log10 of the molar value.

System: 885512-296-R-J2-PDC complex spheroid viability
Experiment: Anticancer human tumor 885512-296-R-J2-PDC patient-derived breast carcinoma cell line growth inhibition [GQUAD]
Settings: for pIC50: curve of first compound; for viability, T/C: stronger effect = lower value; active means viability on the fitted dose curve at most 10% of control; inactive means the rest
Method in brief: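 Tumor cells were grown as complex spheroids with HUVEC endothelial cells and mesenchymal stem cells as stroma. G-quadruplex stabilizers were combined with targeted agents over half-log dilutions from near the clinical Cmax, or from 10 microM.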

[1] = second compound 0.0316 µM, first compound 0.0316 µM
[2] = second compound 0.0316 µM, first compound 0.1 µM
[3] = second compound 0.0316 µM, first compound 0.316 µM
[4] = second compound 0.0316 µM, first compound 1 µM
[5] = second compound 0.0316 µM, first compound 3.16 µM
[6] = second compound 0.0316 µM, first compound 10 µM
[7] = second compound 0.1 µM, first compound 0.0316 µM
[8] = second compound 0.1 µM, first compound 0.1 µM
[9] = second compound 0.1 µM, first compound 0.316 µM
[10] = second compound 0.1 µM, first compound 1 µM
[11] = second compound 0.1 µM, first compound 3.16 µM
[12] = second compound 0.1 µM, first compound 10 µM
[13] = second compound 0.316 µM, first compound 0.0316 µM
[14] = second compound 0.316 µM, first compound 0.1 µM
[15] = second compound 0.316 µM, first compound 0.316 µM
[16] = second compound 0.316 µM, first compound 1 µM
[17] = second compound 0.316 µM, first compound 3.16 µM
[18] = second compound 0.316 µM, first compound 10 µM
[19] = second compound 1 µM, first compound 0.0316 µM
[20] = second compound 1 µM, first compound 0.1 µM
[21] = second compound 1 µM, first compound 0.316 µM
[22] = second compound 1 µM, first compound 1 µM
[23] = second compound 1 µM, first compound 3.16 µM
[24] = second compound 1 µM, first compound 10 µM
[25] = second compound 3.16 µM, first compound 0.0316 µM
[26] = second compound 3.16 µM, first compound 0.1 µM
[27] = second compound 3.16 µM, first compound 0.316 µM
[28] = second compound 3.16 µM, first compound 1 µM
[29] = second compound 3.16 µM, first compound 3.16 µM
[30] = second compound 3.16 µM, first compound 10 µM
[31] = second compound 10 µM, first compound 0.0316 µM
[32] = second compound 10 µM, first compound 0.1 µM
[33] = second compound 10 µM, first compound 0.316 µM
[34] = second compound 10 µM, first compound 1 µM
[35] = second compound 10 µM, first compound 3.16 µM
[36] = second compound 10 µM, first compound 10 µM
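Further: spheroids exposed to the compounds for one week.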
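Wherever viability, T/C is given: percent of tumor spheroid viability relative to DMSO vehicle control wells.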

COc1cc(C2c3cc4c(cc3C(OC3OC5COC(C)OC5C(O)C3O)C3COC(=O)C23)OCO4)cc(OC)c1O (stereo unspecified) + Cc1[nH]c2ccc(F)cc2c1-c1nc2c3cccnc3c3ncccc3c2[nH]1
6.13: pIC50 (second compound 0.0316 µM)
6.09: pIC50 (second compound 0.1 µM)
inactive: viability, T/C [1] 96.3% | viability, T/C [2] 86.7% | viability, T/C [3] 77.3% | viability, T/C [4] 41% | viability, T/C [5] 13.6% | viability, T/C [7] 117% | viability, T/C [8] 91.5% | viability, T/C [9] 94.2% | viability, T/C [10] 39.9% | viability, T/C [11] 11.4% | viability, T/C [13] 91.8% | viability, T/C [14] 98.4% | viability, T/C [15] 82.1% | viability, T/C [16] 36.1% | viability, T/C [17] 16.5% | viability, T/C [18] 8.49% | viability, T/C [19] 70.5% | viability, T/C [20] 76% | viability, T/C [21] 62.3% | viability, T/C [22] 37.9% | viability, T/C [23] 13.7% | viability, T/C [25] 21.3% | viability, T/C [26] 13.6% | viability, T/C [27] 15.8%
6.24: pIC50 (second compound 1 µM)
6.15: pIC50 (second compound 0.316 µM)
active: viability, T/C [6] 10.1% | viability, T/C [12] 10% | viability, T/C [24] 6.78% | viability, T/C [28] 7.13% | viability, T/C [29] 4.87% | viability, T/C [30] 2.93% | viability, T/C [31] 1.61% | viability, T/C [32] 3.08% | viability, T/C [33] 1.52% | viability, T/C [34] 1.53% | viability, T/C [35] 1.51% | viability, T/C [36] 1.37%
> 7.50: pIC50 (second compound 3.16 µM) | pIC50 (second compound 10 µM)

CCCS(=O)(=O)Nc1ccc(F)c(C(=O)c2c[nH]c3ncc(-c4ccc(Cl)cc4)cc23)c1F + Cc1[nH]c2ccc(F)cc2c1-c1nc2c3cccnc3c3ncccc3c2[nH]1
6.41: pIC50 (second compound 0.0316 µM)
6.74: pIC50 (second compound 0.316 µM)
7.31: pIC50 (second compound 1 µM)
> 7.50: pIC50 (second compound 3.16 µM) | pIC50 (second compound 10 µM)
active: viability, T/C [5] 3.89% | viability, T/C [6] 2.96% | viability, T/C [11] 2.95% | viability, T/C [12] 3.79% | viability, T/C [16] 2.94% | viability, T/C [17] 2.46% | viability, T/C [18] 4.34% | viability, T/C [21] 4.4% | viability, T/C [22] 2.04% | viability, T/C [23] 2.3% | viability, T/C [24] 2.75% | viability, T/C [25] 4.29% | viability, T/C [26] 3.06% | viability, T/C [27] 1.78% | viability, T/C [28] 2% | viability, T/C [29] 2.26% | viability, T/C [30] 2.26% | viability, T/C [31] 1.32% | viability, T/C [32] 1.38% | viability, T/C [33] 1.47% | viability, T/C [34] 1.65% | viability, T/C [35] 2.7% | viability, T/C [36] 3.37%
inactive: viability, T/C [1] 112% | viability, T/C [2] 98.4% | viability, T/C [3] 60.7% | viability, T/C [4] 8.66% | viability, T/C [7] 121% | viability, T/C [8] 101% | viability, T/C [9] 64% | viability, T/C [10] 8.42% | viability, T/C [13] 94.4% | viability, T/C [14] 74% | viability, T/C [15] 28.7% | viability, T/C [19] 68.3% | viability, T/C [20] 20.9%
6.39: pIC50 (second compound 0.1 µM)

Nc1ccn(C2OC(CO)C(O)C2(F)F)c(=O)n1 (stereo unspecified) + Cc1cnc(CNC(=O)c2c(=O)c3ccc(N4CCCN(C)CC4)nc3n3c2sc2ccccc23)cn1
active: viability, T/C [2] 3.66% | viability, T/C [3] 4.41% | viability, T/C [4] 3.92% | viability, T/C [5] 3.56% | viability, T/C [6] 4.33% | viability, T/C [7] 8.53% | viability, T/C [8] 4.24% | viability, T/C [9] 3.88% | viability, T/C [10] 5.21% | viability, T/C [11] 4.05% | viability, T/C [12] 3.9% | viability, T/C [13] 8.35% | viability, T/C [14] 8.14% | viability, T/C [15] 5.18% | viability, T/C [16] 2.76% | viability, T/C [17] 5.29% | viability, T/C [18] 4.05% | viability, T/C [19] 9.41% | viability, T/C [20] 7.02% | viability, T/C [21] 3.55% | viability, T/C [22] 3.31% | viability, T/C [23] 4.27% | viability, T/C [24] 3.59% | viability, T/C [25] 4.08% | viability, T/C [26] 0.41% | viability, T/C [27] 0.15% | viability, T/C [28] 0.1% | viability, T/C [29] 0.12% | viability, T/C [30] 0.14% | viability, T/C [31] 0.09% | viability, T/C [32] 0.15% | viability, T/C [33] 0.14% | viability, T/C [34] 0.11% | viability, T/C [35] 0.15% | viability, T/C [36] 0.16%
> 7.50: pIC50 (second compound 0.0316 µM) | pIC50 (second compound 0.1 µM) | pIC50 (second compound 0.316 µM) | pIC50 (second compound 1 µM) | pIC50 (second compound 3.16 µM) | pIC50 (second compound 10 µM)
inactive: viability, T/C [1] 11.4%
